One compound from ChEMBL document CHEMBL4665648, “Potent and selective inhibitors of receptor-interacting protein kinase 1 that lack an aromatic back pocket group” (Bioorg Med Chem Lett, 2019) can be followed below.

Test [1] concerns the target Protein-tyrosine kinase 6 (Homo sapiens) (UniProt Q13882). In words: Inhibition of recombinant human His-tagged full length BRK expressed in baculovirus expression system using Tyr 01 as substrate at 10 uM incubated for 60 mins by Z'-Lyte assay relative to control.
In test [2] the target is T1, Receptor-interacting serine/threonine-protein kinase 1 (Homo sapiens, UniProt Q13546).
T1 sequence (Q13546 whole entry): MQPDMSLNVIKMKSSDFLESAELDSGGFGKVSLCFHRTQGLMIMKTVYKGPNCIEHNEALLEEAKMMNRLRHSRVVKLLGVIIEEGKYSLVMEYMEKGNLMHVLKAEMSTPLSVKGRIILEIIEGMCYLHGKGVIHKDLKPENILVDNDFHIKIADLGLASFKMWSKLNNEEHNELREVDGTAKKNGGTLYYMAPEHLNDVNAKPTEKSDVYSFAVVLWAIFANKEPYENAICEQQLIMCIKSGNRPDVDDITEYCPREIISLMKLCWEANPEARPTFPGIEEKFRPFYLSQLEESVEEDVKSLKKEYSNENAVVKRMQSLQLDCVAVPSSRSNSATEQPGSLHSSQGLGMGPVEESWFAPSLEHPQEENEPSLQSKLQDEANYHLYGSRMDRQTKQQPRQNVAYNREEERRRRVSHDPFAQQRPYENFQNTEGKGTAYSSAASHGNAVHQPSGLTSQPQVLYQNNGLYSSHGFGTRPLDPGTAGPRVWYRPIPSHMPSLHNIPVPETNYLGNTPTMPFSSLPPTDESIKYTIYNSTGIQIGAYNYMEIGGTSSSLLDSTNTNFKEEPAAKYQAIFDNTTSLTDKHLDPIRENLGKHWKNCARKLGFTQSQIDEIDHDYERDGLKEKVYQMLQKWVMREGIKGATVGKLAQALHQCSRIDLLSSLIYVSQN
In words: Inhibition of recombinant human His/GST-tagged RIPK1 (2 to 257 residues) expressed in insect expression system incubated for 2 hrs by fluorescence polarization assay. The following applies: read-out: Ki(app). In general terms: In fluorescence polarisation assays a small probe gives low polarisation when free and higher when bound to something large.

In test [3] the target is Dual specificity protein kinase CLK1 (Homo sapiens) (UniProt P49759). The test can be described thus: Inhibition of recombinant human GST-tagged CLK1 (129 to 484 residues) expressed in Escherichia coli expression system using Ser/Thr 09 as substrate at 10 uM incubated for 60 mins by Z'-Lyte assay relative to control.
Sequence of Dual specificity protein kinase CLK1 (Homo sapiens) (P49759 whole entry, looked up, the tested form may be a part): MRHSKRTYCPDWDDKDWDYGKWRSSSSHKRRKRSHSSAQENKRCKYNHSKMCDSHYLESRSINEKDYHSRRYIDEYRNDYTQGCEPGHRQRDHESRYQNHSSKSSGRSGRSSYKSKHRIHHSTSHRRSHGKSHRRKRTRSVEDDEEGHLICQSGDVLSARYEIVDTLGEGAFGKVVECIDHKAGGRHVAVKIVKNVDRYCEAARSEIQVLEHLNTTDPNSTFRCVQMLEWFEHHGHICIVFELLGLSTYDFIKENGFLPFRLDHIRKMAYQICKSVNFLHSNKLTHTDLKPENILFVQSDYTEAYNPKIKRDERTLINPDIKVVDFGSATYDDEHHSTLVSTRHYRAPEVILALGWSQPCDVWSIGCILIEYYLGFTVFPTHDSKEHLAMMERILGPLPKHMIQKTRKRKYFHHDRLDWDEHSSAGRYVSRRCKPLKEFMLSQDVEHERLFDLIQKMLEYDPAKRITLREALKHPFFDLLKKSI
Test [4] concerns the target Calcium/calmodulin-dependent protein kinase type II subunit alpha (Homo sapiens) (UniProt Q9UQM7). The test can be described thus: Inhibition of recombinant human His-tagged full length CAMK2alpha expressed in baculovirus expression system using Ser/Thr 04 as substrate at 10 uM incubated for 60 mins by Z'-Lyte assay relative to control.
In test [5] the target is Serine/threonine-protein kinase 17A (Homo sapiens) (UniProt Q9UEE5). The test can be described thus: Inhibition of tracer 236 binding to recombinant human GST-tagged full length DRAK1 expressed in baculovirus expression system at 10 uM incubated for 60 mins by Lanthascreen assay relative to control. For orientation: Time-resolved FRET reads energy transfer from a long-lived donor to a nearby acceptor.

The target of test [6] is Vascular endothelial growth factor receptor 1 (Homo sapiens) (UniProt P17948). In words: Inhibition of recombinant human GST-tagged FLT1 (781 to 1338 residues) expressed in baculovirus expression system using Tyr 04 as substrate at 10 uM incubated for 60 mins by Z'-Lyte assay relative to control.
Test [7] addresses Insulin-like growth factor 1 receptor (Homo sapiens) (UniProt P08069). In words: Inhibition of recombinant human His-tagged IGF1R (960 to 1397 residues) expressed in baculovirus expression system using Tyr 01 as substrate at 10 uM incubated for 60 mins by Z'-Lyte assay relative to control.
Test [8] has as its target Tyrosine-protein kinase ITK/TSK (Homo sapiens) (UniProt Q08881). In words: Inhibition of recombinant human GST-tagged full length ITK expressed in baculovirus expression system using Tyr 04 as substrate at 10 uM incubated for 60 mins by Z'-lyte assay relative to control.
Test [9] addresses Serine/threonine-protein kinase MRCK alpha (Homo sapiens) (UniProt Q5VT25). In words: Inhibition of recombinant human His-tagged MRCKA (1 to 473 residues) expressed in baculovirus expression system using Ser/Thr 13 as substrate at 10 uM incubated for 60 mins by Z'-lyte assay relative to control.
For test [10], the target named is Ribosomal protein S6 kinase alpha-5 (Homo sapiens) (UniProt O75582). In words: Inhibition of recombinant human GST-tagged full length MSK1 expressed in baculovirus expression system using Ser/Thr 01 as substrate at 10 uM incubated for 60 mins by Z'-lyte assay relative to control.
Sequence of Ribosomal protein S6 kinase alpha-5 (Homo sapiens) (O75582 whole entry, looked up): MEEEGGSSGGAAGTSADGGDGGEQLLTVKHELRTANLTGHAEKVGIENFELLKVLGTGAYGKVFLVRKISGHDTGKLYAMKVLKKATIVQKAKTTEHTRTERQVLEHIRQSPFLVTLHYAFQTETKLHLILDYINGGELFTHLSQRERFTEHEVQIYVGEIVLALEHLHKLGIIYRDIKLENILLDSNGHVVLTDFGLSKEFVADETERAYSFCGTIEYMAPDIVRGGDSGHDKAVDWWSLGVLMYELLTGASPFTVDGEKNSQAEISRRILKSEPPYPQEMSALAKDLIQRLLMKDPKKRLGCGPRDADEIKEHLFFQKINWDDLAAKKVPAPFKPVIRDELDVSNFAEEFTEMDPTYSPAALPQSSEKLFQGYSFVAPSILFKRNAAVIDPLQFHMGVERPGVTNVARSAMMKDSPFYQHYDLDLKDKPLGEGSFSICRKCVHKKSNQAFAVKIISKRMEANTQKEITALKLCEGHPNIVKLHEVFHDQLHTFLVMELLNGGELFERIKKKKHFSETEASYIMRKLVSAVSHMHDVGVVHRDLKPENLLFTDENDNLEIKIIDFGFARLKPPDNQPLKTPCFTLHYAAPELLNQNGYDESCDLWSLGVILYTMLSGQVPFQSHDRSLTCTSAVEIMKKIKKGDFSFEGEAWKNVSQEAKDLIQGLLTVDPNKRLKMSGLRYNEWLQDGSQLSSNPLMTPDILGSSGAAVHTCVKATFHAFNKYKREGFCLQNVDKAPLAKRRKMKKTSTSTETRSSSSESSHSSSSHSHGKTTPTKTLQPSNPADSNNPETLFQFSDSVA
Test [11] concerns the target Serine/threonine-protein kinase 4 (Homo sapiens) (UniProt Q13043). The test can be described thus: Inhibition of recombinant human GST-tagged full length MST1 expressed in baculovirus expression system using Ser/Thr 01 as substrate at 10 uM incubated for 60 mins by Z'-lyte assay relative to control.
Test [12] addresses Serine/threonine-protein kinase PAK 4 (Homo sapiens) (UniProt O96013). The test can be described thus: Inhibition of recombinant human His-tagged PAK4 (295 to 591 residues) expressed in baculovirus expression system using Ser/Thr 20 as substrate at 10 uM incubated for 60 mins by Z'-lyte assay relative to control.
Test [13] addresses Serine/threonine-protein kinase PLK1 (Homo sapiens) (UniProt P53350). The test can be described thus: Inhibition of recombinant human His-tagged full length PLK1 expressed in baculovirus expression system using Ser/Thr 16 as substrate at 10 uM incubated for 60 mins by Z'-lyte assay relative to control.
For test [14], the target named is Tyrosine-protein kinase receptor TYRO3 (Homo sapiens) (UniProt Q06418). In words: Inhibition of recombinant human GST-tagged full length RSE (451 to 890 residues) expressed in baculovirus expression system using Tyr 02 as substrate at 10 uM incubated for 60 mins by Z'-Lyte assay relative to control.
Sequence of Tyrosine-protein kinase receptor TYRO3 (Homo sapiens) (Q06418 whole entry, the tested form may be a part): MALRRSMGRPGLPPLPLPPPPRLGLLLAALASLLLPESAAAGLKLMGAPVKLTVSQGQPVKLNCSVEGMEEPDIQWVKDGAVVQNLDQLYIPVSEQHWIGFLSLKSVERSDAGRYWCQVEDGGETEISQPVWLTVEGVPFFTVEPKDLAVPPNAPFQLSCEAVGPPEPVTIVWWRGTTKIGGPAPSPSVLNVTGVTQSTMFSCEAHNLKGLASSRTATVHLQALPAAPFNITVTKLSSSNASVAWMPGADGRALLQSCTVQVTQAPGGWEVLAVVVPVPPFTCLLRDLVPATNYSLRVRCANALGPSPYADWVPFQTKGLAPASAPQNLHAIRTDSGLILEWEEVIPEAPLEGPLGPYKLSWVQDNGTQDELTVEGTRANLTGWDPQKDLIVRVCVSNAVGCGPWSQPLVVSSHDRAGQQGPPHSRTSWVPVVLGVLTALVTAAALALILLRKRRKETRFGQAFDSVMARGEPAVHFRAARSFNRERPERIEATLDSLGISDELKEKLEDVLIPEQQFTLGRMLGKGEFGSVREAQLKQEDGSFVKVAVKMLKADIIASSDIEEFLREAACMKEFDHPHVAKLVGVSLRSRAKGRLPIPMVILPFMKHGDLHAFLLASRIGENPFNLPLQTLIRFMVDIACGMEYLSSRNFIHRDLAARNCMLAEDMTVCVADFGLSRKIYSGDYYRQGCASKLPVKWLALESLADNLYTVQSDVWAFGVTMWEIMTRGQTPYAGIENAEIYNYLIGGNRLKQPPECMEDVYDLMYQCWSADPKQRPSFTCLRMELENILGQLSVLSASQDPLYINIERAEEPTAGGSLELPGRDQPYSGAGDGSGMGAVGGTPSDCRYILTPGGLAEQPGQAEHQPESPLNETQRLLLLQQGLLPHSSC
Test [15] concerns the target Tyrosine-protein kinase SYK (Homo sapiens) (UniProt P43405). In words: Inhibition of recombinant human N-terminalGST-tagged full length SYK expressed in baculovirus expression system using Tyr 02 as substrate at 10 uM incubated for 60 mins by Z'-Lyte assay relative to control.
The target of test [16] is Dual specificity protein kinase TTK (Homo sapiens) (UniProt P33981). The test can be described thus: Inhibition of tracer 236 binding to recombinant human GST-tagged full length TTK expressed in baculovirus expression system at 10 uM incubated for 60 mins by Lanthascreen assay relative to control.
In test [17] the target is Mitogen-activated protein kinase kinase kinase 8 (Homo sapiens) (UniProt P41279). The test can be described thus: Inhibition of recombinant human GST-tagged TPL2 (30 to 397 residues) expressed in baculovirus expression system using Ser/Thr 03 as substrate at 10 uM incubated for 60 mins by Z'-Lyte assay relative to control.
The target in test [18] is Tyrosine-protein kinase ZAP-70 (Homo sapiens) (UniProt P43403). The test can be described thus: Inhibition of recombinant human His-tagged full length ZAP70 expressed in baculovirus expression system using Tyr 07 as substrate at 10 uM incubated for 60 mins by Z'-Lyte assay relative to control.
Sequence of Tyrosine-protein kinase ZAP-70 (Homo sapiens) (P43403 whole entry): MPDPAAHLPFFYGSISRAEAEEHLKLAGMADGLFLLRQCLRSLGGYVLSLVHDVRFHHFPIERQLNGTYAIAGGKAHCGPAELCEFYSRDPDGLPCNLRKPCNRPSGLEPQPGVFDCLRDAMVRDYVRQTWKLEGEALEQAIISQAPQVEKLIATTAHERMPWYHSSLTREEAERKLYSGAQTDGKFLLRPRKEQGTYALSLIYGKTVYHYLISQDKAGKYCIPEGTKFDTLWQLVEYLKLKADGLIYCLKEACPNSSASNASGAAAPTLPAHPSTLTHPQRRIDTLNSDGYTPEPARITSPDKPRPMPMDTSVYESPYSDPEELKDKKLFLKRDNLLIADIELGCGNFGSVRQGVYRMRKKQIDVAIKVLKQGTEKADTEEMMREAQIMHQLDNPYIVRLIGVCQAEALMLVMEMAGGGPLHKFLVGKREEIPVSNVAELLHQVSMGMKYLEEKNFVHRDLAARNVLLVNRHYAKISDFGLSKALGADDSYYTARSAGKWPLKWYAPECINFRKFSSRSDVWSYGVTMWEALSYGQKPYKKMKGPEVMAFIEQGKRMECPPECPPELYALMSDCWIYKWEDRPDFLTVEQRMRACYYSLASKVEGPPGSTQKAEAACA
The target of test [19] is Mitogen-activated protein kinase 14 (Homo sapiens) (UniProt Q16539). The test can be described thus: Inhibition of recombinant human GST-tagged full length p38 alpha expressed in Escherichia coli expression system using Ser/Thr 15 as substrate at 10 uM incubated for 60 mins by Z'-Lyte assay relative to control.

Sequence of Serine/threonine-protein kinase MRCK alpha (Homo sapiens) (Q5VT25 whole entry, the tested form may be a part): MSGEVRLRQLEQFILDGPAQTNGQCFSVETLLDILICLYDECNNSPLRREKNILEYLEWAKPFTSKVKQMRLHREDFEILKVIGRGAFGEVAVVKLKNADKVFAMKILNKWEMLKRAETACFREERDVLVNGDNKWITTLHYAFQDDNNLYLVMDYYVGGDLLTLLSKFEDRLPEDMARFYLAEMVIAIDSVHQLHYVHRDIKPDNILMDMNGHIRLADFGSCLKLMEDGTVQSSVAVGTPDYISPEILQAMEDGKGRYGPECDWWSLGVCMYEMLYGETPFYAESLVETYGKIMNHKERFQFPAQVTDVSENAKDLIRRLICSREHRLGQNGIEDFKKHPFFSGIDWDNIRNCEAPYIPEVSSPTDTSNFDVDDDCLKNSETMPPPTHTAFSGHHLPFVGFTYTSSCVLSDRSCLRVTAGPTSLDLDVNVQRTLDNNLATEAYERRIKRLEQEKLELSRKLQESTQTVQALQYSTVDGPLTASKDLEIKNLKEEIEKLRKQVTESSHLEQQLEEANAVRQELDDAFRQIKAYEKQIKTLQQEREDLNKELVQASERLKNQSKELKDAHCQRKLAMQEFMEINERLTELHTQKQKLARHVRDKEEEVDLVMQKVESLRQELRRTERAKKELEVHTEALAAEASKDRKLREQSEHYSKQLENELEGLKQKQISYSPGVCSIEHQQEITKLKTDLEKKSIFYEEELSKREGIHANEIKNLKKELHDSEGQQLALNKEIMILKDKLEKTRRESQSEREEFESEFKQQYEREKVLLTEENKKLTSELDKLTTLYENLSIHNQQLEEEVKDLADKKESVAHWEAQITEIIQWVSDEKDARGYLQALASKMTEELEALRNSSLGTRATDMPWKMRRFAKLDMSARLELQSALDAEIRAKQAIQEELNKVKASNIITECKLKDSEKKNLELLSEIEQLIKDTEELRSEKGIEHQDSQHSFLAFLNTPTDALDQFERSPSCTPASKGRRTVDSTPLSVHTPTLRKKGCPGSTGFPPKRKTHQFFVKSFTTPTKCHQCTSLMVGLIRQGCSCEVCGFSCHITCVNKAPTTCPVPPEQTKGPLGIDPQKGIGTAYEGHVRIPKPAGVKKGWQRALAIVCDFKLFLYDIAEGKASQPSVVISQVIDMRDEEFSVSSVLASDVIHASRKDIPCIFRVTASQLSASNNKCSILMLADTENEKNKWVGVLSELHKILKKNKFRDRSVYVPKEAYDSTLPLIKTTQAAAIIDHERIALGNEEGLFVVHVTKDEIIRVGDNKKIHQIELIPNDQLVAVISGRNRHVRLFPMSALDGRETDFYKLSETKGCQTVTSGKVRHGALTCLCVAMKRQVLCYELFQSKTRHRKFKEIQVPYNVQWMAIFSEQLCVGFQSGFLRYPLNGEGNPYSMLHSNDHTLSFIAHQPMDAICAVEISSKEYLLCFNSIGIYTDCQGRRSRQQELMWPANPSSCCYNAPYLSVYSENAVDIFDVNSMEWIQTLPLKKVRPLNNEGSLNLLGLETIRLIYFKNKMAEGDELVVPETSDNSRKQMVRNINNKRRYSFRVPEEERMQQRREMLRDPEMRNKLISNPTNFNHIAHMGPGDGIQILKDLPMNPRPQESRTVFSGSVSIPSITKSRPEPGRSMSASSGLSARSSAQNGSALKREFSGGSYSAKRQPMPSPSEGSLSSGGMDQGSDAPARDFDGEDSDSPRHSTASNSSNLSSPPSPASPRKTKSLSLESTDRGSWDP
Sequence of Calcium/calmodulin-dependent protein kinase type II subunit alpha (Homo sapiens) (Q9UQM7 whole entry): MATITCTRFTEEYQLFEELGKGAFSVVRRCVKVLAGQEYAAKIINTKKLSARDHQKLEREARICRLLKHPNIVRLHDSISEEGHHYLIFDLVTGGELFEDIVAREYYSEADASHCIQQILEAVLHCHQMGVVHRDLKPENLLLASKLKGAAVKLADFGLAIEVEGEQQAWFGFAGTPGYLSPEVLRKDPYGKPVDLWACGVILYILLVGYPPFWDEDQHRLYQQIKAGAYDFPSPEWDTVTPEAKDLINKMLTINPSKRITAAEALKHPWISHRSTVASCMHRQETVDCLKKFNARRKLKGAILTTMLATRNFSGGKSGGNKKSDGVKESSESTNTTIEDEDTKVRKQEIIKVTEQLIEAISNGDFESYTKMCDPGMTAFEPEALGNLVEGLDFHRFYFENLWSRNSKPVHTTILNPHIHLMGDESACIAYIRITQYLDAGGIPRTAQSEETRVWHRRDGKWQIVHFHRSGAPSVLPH

For orientation: inhibition means the relative decrease from the control value, in per cent. `CN1C(=O)[C@@H](NC(=O)c2n[nH]c3ncc(C(F)(F)C(F)(F)F)cc23)COc2ccccc21`: the inhibition in [1] was 0.5%; in [3], 3.5%; in [4] it was 1%; in test [5] it was 15.5%; in test [6], 3.5%; in test [7], -0.5%. Moreover, the inhibition was -2% in test [8]; 0% in test [9]; -1% in [10]; 7.5% in test [11]; 6% in test [12]; 2.5% in test [13]. The inhibition is 1.5% in [14]; 6% in test [15]; -6.5% in [16]; 6.5% in test [17]; -2% in test [18]; 0.5% in [19]. Besides, the Ki in test [2] was found to be 6 nM.
